Experimental findings from ChEMBL document CHEMBL5653631, “A Potent and Selective ULK1 Inhibitor Suppresses Autophagy and Sensitizes Cancer Cells to Nutrient Stress” (iScience, 2018) are described below.

The target in experiment [1] is Tyrosine-protein kinase Yes (Homo sapiens) (UniProt P07947). The experiment is described as follows: Inhibition of human recombinant YES at 40 nM in presence of ATP by radiometric assay relative to control.
Experiment [2] addresses Cyclin-dependent kinase 5 (Homo sapiens) (UniProt Q00535). In words: Inhibition of human recombinant CDK5 at 40 nM in presence of ATP by radiometric assay relative to control.
Experiment [3] addresses T1, Eukaryotic elongation factor 2 kinase (Homo sapiens) (UniProt O00418).
T1 sequence (whole entry): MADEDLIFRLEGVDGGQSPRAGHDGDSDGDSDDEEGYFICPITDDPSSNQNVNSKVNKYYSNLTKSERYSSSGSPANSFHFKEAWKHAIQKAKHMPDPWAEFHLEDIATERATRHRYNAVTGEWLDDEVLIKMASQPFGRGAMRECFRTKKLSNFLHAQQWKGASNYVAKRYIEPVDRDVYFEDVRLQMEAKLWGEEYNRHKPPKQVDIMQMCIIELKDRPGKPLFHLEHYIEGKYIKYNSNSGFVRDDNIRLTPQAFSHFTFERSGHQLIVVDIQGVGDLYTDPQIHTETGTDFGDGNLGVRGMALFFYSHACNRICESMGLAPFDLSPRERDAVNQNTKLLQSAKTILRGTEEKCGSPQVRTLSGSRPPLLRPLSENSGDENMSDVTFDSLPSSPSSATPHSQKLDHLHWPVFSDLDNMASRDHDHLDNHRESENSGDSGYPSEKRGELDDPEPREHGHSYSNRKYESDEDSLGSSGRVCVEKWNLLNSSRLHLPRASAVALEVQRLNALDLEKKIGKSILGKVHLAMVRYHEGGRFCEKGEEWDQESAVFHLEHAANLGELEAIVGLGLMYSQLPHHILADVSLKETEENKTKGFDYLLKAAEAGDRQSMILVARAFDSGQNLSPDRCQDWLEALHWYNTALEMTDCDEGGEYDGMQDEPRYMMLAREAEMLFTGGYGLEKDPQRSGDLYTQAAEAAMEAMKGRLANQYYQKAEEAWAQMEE
The experiment is described as follows: Inhibition of human recombinant eEF2K at 40 nM related to control ULK1.

In experiment [4] the target is Mast/stem cell growth factor receptor Kit (Homo sapiens) (UniProt P10721). In words: Inhibition of human recombinant KIT at 40 nM in presence of ATP by radiometric assay relative to control.
In experiment [5] the target is Casein kinase I isoform gamma-1 (Homo sapiens) (UniProt Q9HCP0). The experiment is described as follows: Inhibition of human recombinant CK1g1 at 40 nM related to control ULK1.
The target in experiment [6] is Mitogen-activated protein kinase 9 (Homo sapiens) (UniProt P45984). In words: Inhibition of human recombinant JNK2 at 500 nM related to control ULK1.
The target of experiment [7] is T2, cAMP-dependent protein kinase catalytic subunit PRKX (Homo sapiens) (UniProt P51817).
T2 sequence (whole entry): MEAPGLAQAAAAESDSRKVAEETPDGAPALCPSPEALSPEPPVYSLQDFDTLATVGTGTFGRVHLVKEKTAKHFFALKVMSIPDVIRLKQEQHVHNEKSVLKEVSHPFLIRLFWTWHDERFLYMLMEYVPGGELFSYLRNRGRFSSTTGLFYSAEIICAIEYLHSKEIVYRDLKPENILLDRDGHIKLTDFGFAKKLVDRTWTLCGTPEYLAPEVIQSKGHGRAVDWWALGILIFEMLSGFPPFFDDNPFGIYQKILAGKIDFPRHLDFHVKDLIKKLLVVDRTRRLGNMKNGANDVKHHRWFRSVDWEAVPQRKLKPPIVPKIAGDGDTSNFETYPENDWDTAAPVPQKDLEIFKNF
The experiment is described as follows: Inhibition of human recombinant PRKX at 500 nM in presence of ATP by radiometric assay relative to control.

The target in experiment [8] is Vascular endothelial growth factor receptor 1 (Homo sapiens) (UniProt P17948). The experiment is described as follows: Inhibition of human recombinant FLT1 at 500 nM related to control ULK1.
Experiment [9] concerns the target Focal adhesion kinase 1 (Homo sapiens) (UniProt Q05397). The experiment is described as follows: Inhibition of human recombinant FAK at 500 nM related to control ULK1.
The target in experiment [10] is Cyclin-dependent kinase 4 (Homo sapiens) (UniProt P11802). The experiment is described as follows: Inhibition of human recombinant CDK4 at 500 nM related to control ULK1.
Experiment [11] addresses Mitogen-activated protein kinase 9 (Homo sapiens) (UniProt P45984). In words: Inhibition of human recombinant JNK2 at 15 nM in presence of ATP by radiometric assay relative to control.
Experiment [12] has as its target T3, Mitogen-activated protein kinase kinase kinase 3 (Homo sapiens) (UniProt Q99759).
T3 sequence (whole entry): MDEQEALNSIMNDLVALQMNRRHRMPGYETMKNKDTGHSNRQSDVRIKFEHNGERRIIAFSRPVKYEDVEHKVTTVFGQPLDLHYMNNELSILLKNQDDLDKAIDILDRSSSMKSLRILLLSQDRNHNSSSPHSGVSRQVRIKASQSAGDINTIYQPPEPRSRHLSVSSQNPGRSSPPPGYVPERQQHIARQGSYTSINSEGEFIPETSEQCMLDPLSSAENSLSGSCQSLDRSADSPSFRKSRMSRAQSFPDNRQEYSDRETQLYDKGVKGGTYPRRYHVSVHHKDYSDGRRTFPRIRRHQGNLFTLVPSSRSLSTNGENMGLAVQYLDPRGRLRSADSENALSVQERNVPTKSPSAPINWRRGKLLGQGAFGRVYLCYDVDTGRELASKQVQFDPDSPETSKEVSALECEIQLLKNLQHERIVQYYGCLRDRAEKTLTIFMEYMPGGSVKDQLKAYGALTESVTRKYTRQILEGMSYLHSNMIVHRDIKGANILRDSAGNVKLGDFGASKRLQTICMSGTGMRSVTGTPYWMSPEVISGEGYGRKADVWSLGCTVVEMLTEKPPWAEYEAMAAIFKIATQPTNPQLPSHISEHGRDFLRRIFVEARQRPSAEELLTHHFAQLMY
The experiment is described as follows: Inhibition of human recombinant MAP3K3 at 15 nM related to control ULK1.

Experiment [13] has as its target T4, Mitogen-activated protein kinase 12 (Homo sapiens) (UniProt P53778).
T4 sequence (whole entry): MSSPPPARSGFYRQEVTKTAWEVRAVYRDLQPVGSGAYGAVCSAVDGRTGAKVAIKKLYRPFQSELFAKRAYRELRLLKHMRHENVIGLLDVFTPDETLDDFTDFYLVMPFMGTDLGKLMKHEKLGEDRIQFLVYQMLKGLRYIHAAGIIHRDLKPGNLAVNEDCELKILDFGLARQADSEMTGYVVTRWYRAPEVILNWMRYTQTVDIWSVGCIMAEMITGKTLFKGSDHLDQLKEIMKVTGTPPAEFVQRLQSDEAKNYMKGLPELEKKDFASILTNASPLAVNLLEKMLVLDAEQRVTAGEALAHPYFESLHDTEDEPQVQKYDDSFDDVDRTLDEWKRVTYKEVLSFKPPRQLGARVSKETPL
In words: Inhibition of human recombinant p38gamma at 15 nM related to control ULK1.

The target in experiment [14] is Serine/threonine-protein kinase 24 (Homo sapiens) (UniProt Q9Y6E0). The experiment is described as follows: Inhibition of human recombinant MST3 at 15 nM in presence of ATP by radiometric assay relative to control.

Molecules are shown by their SMILES.

Sequence of Mitogen-activated protein kinase 9 (Homo sapiens) (P45984 whole entry, looked up): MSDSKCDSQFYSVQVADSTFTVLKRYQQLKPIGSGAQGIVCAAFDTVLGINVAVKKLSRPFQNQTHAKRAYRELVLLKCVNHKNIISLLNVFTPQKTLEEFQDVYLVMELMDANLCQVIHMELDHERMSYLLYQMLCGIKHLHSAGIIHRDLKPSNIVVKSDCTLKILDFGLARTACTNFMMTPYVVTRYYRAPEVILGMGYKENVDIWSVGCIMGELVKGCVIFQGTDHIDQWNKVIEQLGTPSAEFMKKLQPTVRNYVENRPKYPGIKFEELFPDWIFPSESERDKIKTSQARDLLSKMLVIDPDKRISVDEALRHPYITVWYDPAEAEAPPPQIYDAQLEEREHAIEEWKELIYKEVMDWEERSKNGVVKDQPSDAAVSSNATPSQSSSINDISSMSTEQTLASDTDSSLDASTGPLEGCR
Sequence of Vascular endothelial growth factor receptor 1 (Homo sapiens) (P17948 whole entry): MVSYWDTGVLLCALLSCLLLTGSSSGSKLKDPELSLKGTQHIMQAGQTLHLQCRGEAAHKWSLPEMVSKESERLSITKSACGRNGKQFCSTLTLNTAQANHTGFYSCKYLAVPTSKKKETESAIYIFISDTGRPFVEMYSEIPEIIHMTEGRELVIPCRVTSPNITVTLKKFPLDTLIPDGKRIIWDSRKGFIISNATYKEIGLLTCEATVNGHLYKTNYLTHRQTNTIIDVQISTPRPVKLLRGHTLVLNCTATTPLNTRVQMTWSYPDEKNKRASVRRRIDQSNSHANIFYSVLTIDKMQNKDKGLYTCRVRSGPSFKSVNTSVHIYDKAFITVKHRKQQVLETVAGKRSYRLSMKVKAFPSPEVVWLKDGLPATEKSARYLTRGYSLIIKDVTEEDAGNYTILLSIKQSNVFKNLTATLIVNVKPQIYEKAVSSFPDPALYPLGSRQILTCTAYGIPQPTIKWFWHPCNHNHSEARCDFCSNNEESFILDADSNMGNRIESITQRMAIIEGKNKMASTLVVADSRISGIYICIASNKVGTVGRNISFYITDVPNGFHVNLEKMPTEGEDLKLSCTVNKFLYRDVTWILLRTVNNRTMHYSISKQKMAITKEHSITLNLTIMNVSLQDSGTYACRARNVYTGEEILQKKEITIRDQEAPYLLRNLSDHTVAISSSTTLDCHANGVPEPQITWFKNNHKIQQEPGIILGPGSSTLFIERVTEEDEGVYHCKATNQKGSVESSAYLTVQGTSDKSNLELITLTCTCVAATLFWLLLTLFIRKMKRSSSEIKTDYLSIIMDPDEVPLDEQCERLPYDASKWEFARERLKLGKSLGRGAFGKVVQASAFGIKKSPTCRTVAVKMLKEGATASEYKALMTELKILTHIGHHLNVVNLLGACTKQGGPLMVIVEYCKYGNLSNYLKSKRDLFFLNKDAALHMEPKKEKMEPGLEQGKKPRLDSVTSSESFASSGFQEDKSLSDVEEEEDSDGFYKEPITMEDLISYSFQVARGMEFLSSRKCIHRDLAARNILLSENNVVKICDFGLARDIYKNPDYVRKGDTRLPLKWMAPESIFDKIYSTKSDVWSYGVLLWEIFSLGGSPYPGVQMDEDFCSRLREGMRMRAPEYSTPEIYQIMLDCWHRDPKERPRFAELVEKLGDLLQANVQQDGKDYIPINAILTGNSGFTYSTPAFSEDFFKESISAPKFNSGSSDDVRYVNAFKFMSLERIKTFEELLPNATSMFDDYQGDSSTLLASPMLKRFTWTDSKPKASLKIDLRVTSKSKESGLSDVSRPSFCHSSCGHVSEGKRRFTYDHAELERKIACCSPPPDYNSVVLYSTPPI
Sequence of Cyclin-dependent kinase 4 (Homo sapiens) (P11802 whole entry): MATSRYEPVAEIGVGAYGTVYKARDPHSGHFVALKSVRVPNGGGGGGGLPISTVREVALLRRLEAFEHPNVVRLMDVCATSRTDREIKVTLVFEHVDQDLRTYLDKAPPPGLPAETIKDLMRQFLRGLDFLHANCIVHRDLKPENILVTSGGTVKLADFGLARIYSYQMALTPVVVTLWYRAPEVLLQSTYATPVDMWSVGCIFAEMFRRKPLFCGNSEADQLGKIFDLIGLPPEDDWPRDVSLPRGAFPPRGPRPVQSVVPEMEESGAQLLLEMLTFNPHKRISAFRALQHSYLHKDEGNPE
Sequence of Cyclin-dependent kinase 5 (Homo sapiens) (Q00535 whole entry, looked up): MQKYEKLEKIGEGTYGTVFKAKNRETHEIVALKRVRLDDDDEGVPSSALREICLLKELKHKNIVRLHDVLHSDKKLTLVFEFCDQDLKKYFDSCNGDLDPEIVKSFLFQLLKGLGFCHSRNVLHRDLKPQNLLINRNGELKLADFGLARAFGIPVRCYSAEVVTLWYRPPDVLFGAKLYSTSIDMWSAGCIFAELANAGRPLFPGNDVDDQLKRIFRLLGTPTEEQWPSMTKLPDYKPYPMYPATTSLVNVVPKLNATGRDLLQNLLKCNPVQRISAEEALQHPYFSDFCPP
Sequence of Focal adhesion kinase 1 (Homo sapiens) (Q05397 2-1052 limits assumed): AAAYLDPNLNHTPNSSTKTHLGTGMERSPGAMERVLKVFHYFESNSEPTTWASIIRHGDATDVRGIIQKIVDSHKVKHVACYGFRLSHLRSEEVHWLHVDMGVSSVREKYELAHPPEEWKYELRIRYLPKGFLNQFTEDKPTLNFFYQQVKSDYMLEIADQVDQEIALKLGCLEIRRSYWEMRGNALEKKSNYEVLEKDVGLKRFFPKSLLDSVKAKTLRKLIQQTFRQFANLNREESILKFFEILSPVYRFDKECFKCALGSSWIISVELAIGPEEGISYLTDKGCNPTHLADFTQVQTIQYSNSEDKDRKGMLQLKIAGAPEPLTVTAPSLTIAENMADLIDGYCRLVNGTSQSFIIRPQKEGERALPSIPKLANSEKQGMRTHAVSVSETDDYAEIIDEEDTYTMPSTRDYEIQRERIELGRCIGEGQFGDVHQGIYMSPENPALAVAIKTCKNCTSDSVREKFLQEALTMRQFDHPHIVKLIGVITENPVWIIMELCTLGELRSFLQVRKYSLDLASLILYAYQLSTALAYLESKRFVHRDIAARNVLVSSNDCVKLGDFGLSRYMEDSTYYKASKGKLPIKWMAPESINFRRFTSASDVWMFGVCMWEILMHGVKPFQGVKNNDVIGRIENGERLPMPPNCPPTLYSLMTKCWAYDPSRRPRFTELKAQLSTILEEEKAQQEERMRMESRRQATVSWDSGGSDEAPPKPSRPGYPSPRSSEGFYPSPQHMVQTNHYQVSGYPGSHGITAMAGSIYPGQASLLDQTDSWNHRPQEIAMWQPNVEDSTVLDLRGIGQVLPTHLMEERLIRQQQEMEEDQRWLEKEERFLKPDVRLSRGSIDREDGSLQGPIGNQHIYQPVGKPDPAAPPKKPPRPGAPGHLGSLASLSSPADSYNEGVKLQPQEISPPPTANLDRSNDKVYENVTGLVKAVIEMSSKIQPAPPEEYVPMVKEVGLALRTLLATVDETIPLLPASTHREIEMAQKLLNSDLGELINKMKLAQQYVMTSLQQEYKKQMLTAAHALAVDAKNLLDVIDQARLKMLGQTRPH
Sequence of Casein kinase I isoform gamma-1 (Homo sapiens) (Q9HCP0 whole entry, looked up, canonical isoform): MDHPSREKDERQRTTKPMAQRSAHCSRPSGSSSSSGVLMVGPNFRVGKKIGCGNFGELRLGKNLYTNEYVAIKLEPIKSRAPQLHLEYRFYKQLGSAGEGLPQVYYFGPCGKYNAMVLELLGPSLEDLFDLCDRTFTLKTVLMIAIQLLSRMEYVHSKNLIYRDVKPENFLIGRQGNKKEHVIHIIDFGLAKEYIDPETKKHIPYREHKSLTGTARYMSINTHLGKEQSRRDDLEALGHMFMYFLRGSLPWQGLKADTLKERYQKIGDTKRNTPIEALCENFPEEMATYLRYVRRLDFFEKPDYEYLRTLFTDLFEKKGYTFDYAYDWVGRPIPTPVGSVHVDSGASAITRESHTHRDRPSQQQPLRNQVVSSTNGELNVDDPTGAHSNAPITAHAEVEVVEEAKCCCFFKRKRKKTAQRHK
Sequence of Mast/stem cell growth factor receptor Kit (Homo sapiens) (P10721 whole entry, canonical isoform): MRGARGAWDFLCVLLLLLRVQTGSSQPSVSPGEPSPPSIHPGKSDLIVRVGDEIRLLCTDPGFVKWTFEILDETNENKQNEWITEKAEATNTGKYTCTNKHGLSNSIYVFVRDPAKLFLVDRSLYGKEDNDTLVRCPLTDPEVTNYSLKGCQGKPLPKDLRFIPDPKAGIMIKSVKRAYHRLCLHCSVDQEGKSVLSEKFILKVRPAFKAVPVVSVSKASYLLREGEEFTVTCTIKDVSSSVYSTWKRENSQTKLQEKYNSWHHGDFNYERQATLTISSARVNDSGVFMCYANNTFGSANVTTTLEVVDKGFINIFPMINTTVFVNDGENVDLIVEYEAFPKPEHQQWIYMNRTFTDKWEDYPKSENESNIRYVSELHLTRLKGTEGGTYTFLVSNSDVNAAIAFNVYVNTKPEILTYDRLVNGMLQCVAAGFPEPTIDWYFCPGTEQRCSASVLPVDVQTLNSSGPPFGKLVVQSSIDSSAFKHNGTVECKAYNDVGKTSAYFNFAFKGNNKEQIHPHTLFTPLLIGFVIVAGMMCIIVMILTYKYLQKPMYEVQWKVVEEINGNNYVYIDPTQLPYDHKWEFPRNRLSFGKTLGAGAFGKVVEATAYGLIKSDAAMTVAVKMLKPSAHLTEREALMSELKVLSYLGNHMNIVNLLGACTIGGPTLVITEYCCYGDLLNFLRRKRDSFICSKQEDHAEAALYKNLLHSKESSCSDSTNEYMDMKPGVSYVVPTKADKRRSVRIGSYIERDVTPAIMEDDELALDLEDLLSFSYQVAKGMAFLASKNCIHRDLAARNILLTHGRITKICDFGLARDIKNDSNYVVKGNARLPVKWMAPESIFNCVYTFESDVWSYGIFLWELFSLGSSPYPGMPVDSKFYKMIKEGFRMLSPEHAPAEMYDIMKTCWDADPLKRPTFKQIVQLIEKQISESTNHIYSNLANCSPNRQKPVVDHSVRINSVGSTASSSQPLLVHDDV

Broadly, the inhibition is the share of the control response that was lost under treatment. With `O=C(N[C@@H](C1CC1)C(F)(F)F)c1cc(-c2cnn3cc(-c4ccc(F)cc4)cnc23)cs1`, the inhibition in experiment [1] is 23%; in experiment [2], 47%; in [4] it was 0%. Besides, the fold change (FC) in [3] turned out to be 0.1; in [5], 0.
In the case of `CNC(=O)c1ccccc1Oc1nc(Nc2cc(OC)c(OC)c(OC)c2)ncc1Br`, the fold change (FC) in experiment [6] amounted to 0; in [8], 0.03; in experiment [9] it was 0.96; in experiment [10], 0. Further, the inhibition in [7] was 16%.
Turning to `CC(C)[C@H](NC(=O)c1cc(-c2cnn3cc(-c4ccc(OCCN5CCCCC5)cc4)cnc23)cs1)C(F)(F)F`, the inhibition in experiment [11] and in experiment [14] was 0% throughout. The fold change (FC) in experiment [12] was determined as 0.03; in experiment [13], 0.06.
